# According to patent publication US5534416A, “Fluorescent viability assay using cyclic-substituted unsymmetrical cyanine dyes” (Molecular Probes, Inc., priority 1993, dated 1996):
# What was measured:
# nucleic acids = assay: Excitation/emission maxima of dyes complexed with nucleic acids; format: physicochemical; parameters: key: wavelength in nm; conditions: Table 2; dye complexed with nucleic acids
# Text: Dye I is lightly colored and is virtually non-fluorescent when diluted in aqueous solution according to the method of the invention. Dye I is highly membrane-permeant and labels all cells, whether live or dead. When Dye I binds with intracellular nucleic acid polymers such as DNA and RNA, the resultant dye-nucleic acid complex becomes extremely fluorescent upon illumination. The quantum yield of the preferred Dye I/DNA complex is greater than 0.02, typically greater than 0.1, preferably greater than 0.2, and more preferably greater than 0.3. Typically, Dye I combines with intracellular nucleic acids to give a green or red fluorescence. When excited at a wavelength between about 300 nm and about 500 nm, the dyes complexed with nucleic acids have an emission maximum between about 500 and about 610 nm (see Table 2). Preferably, Dye I complexed with nucleic acids has an emission maximum of between about 500 nm and about 535 nm, resulting in a true green fluorescent signal in cells of the sample where Dye I is present alone.
# DNA = assay: Quantum yield of dye on DNA versus fluorescein; format: physicochemical; conditions: Table 2; Tris buffered saline pH 10; fluorescein assumed 0.92
# Text: ^ Quantum yield (QY) of dye on DNA (standard solution in Tris buffere
# saline adjusted to pH 10) in comparison with fluorescein, which is assume
# to have a quantum yield of 0.92 under the test conditions.
# Factors such as degree of fluorescence enhancement with nucleic acid binding, self quenching, molar extinction coefficient, membrane permeability, intracellular partitioning, nucleic acid binding affinity, and quantum yield contribute to the overall fluorescence of nucleic acid stains in cells. Enhanced cell fluorescence obtained with Dye I is related to unexpected properties other than quantum yield alone. Quantum yield is determined as described above (foot note to Table 2). Normalized quantum yield is determined to illustrate the fold-change in quantum yield of Dye I compared with thiazole orange, a related cell-permeant dye. The normalized fluorescence values represent the quantum yield of each dye divided by the quantum yield of thiazole orange. Fluorescence per cell is also scaled to thiazole orange values for both E. coli and S. aureus to allow direct comparison between relative (normalized) quantum yield and relative (normalized) fluorescence/cell.
# calf thymus DNA = conditions: Table 5; bound to excess calf thymus DNA (50 bp/dye); cited from earlier work
EM max (nucleic acids),EX max (nucleic acids),QY (DNA) (DNA),Compound,EM max (calf thymus DNA),EX max (calf thymus DNA)
508,489,0.12,C[n+]1c(C=C2C=C(Cl)N(c3ccccc3)c3ccccc32)oc2ccccc21 [compound 633],,
,,,C[n+]1c(C=CC=C2C=CN(CCC[N+](C)(C)CCC[N+](C)(C)CCCN3C=CC(=CC=Cc4sc5ccccc5[n+]4C)c4ccccc43)c3ccccc32)sc2ccccc21 [TOTO-3],660 nm,642 nm
759,739,,CCN1C(=Cc2cc(Cl)[n+](-c3ccccc3)c3ccccc23)Sc2ccccc21 [compound 200],,
520,483,,C[n+]1c(C=C2C=C(OS(=O)(=O)C(F)(F)F)N(c3ccccc3)c3ccccc32)sc2ccccc21 [compound 854],,
,,0.65,CCCN(CCC)C1=CC(=Cc2sc3ccccc3[n+]2C)c2ccccc2N1c1ccccc1 [compound 776],,
611,586,,COC1=CC(=CC=Cc2oc3ccccc3[n+]2C)c2ccccc2N1c1ccccc1 [compound 672],,
,,,C[n+]1c(C=C2C=CN(CCC[N+](C)(C)C)C=C2)oc2ccccc21 [PO-PRO-1],455 nm,435 nm
,,,C[n+]1c(C=CC=C2C=CN(CCC[N+](C)(C)CCC[N+](C)(C)CCCN3C=CC(=CC=Cc4oc5ccccc5[n+]4C)C=C3)C=C2)oc2ccccc21 [POPO-3],570 nm,534 nm
523,450,,C[n+]1c(C=C2C=Cc3ccccc3N2c2ccccc2)sc2ccccc21 [compound 64],,
656,635,,CCCCC1=CC(=CC=Cc2sc3ccccc3[n+]2C)c2ccccc2N1c1ccccc1 [compound 621],,
544,517,0.19,C[n+]1c(C=C2C=C(c3ccccc3)N(c3ccccc3)c3ccccc32)sc2ccccc21 [compound 630],,
536,513,0.09,C[n+]1c(C=C2C=C(Cl)N(C3CCCCC3)c3ccccc32)sc2ccccc21 [780 (Cl)],,
548,513,0.20,CN1C(c2ccccc2)=CC(=Cc2sc3ccccc3[n+]2C)c2ccccc21 [compound 639],,
,,,C[n+]1c(C=C2C=CN(CCC[N+](C)(C)C)c3ccccc32)sc2ccccc21 [TO-PRO-1],531 nm,515 nm
,,,C[n+]1c(C=CC=C2C=CN(CCC[N+](C)(C)C)C=C2)sc2ccccc21 [BO-PRO-3],599 nm,575 nm
,,0.31,CSC1=CC(=Cc2sc3ccccc3[n+]2C)c2ccccc2N1C1CCCCC1 [780 (S)],,
516,471,,C[n+]1c(C=C2C=CN(c3ccccc3)C=C2)sc2ccccc21 [compound 640],,
518,494,0.51,CN1C(=Cc2cc(N3CCOCC3)[n+](C)c3ccccc23)Sc2ccccc21 [compound 752],,
,,,C[n+]1c(C=CC=C2C=CN(CCC[N+](C)(C)CCC[N+](C)(C)CCCN3C=CC(=CC=Cc4sc5ccccc5[n+]4C)C=C3)C=C2)sc2ccccc21 [BOBO-3],602 nm,570 nm
555,516,,C[n+]1c(C=C2C=C(Sc3ccccn3)N(c3ccccc3)c3ccccc32)sc2ccccc21 [compound 853],,
,,,CC[N+](C)(CC)CCC[n+]1c(-c2ccccc2)c2cc(N)ccc2c2ccc(N)cc21 [Propidium iodide],617 nm,536 nm
530,511,0.18,COc1ccc2c(c1)N(c1ccccc1)C(Cl)=CC2=Cc1sc2ccccc2[n+]1C [compound 5103],,
,,,C[n+]1c(C=C2C=CN(CCC[N+](C)(C)C)C=C2)sc2ccccc21 [BO-PRO-1],481 nm,462 nm
,,,C[n+]1c(C=C2C=CN(CCC[N+](C)(C)CCC[N+](C)(C)CCCN3C=CC(=Cc4sc5ccccc5[n+]4C)C=C3)C=C2)sc2ccccc21 [BOBO-1],481 nm,462 nm
504,470,,C[n+]1c(C=C2C=CN(c3ccccc3)C(Cl)=C2)sc2ccccc21 [compound 578],,
507,486,,C[n+]1c(C=C2C=C(F)N(c3ccccc3)c3ccccc32)sc2ccccc21 [compound 834],,

EM max (nucleic acids),EX max (nucleic acids),QY (DNA) (DNA),Compound,EM max (calf thymus DNA),EX max (calf thymus DNA)
525,508,0.31,CN1C(=Cc2cc[n+](C3CCCCC3)c3ccccc23)Sc2ccccc21 [compound 73],,
,,,C[n+]1c(C=CC=C2C=CN(CCC[N+](C)(C)C)c3ccccc32)oc2ccccc21 [YO-PRO-3],631 nm,612 nm
611,570,,CCCCC1=CC(=CC=Cc2sc3ccccc3[n+]2C)C=CN1c1ccccc1 [compound 742],,
,,,C[n+]1c(C=C2C=CN(CCC[N+](C)(C)CCC[N+](C)(C)CCCN3C=CC(=Cc4oc5ccccc5[n+]4C)C=C3)C=C2)oc2ccccc21 [POPO-1],456 nm,434 nm
,,,C[n+]1c(C=C2C=CN(CCC[N+](C)(C)CCC[N+](C)(C)CCCN3C=CC(=Cc4oc5ccccc5[n+]4C)c4ccccc43)c3ccccc32)oc2ccccc21 [YOYO-1],509 nm,491 nm
,,,CC[n+]1c(-c2ccccc2)c2cc(N=[N+]=[N-])ccc2c2ccc(N)cc21 [Ethidium monoazide],615 nm,465 nm
527,510,,CN1C(=Cc2cc[n+](C3CCCCC3)c3ccccc23)Sc2ccccc21 [compound 542],,
533,517,,CN1C(=Cc2cc(Cl)[n+](-c3cccs3)c3ccccc23)Sc2ccccc21 [compound 830],,
508,486,0.58,CC(C)OC1=CC(=Cc2sc3ccccc3[n+]2C)c2ccccc2N1c1ccccc1 [compound 764],,
,,,C[n+]1c(C=CC=C2C=CN(CCC[N+](C)(C)C)c3ccccc32)sc2ccccc21 [TO-PRO-3],661 nm,642 nm
518,495,,C[n+]1c(C=C2C=C(Oc3ccccc3)N(c3ccccc3)c3ccccc32)sc2ccccc21 [compound 835],,
524,506,0.50,C[n+]1c(C=C2C=C(C3CCCCC3)N(c3ccccc3)c3ccccc32)sc2ccccc21 [compound 765],,
523,505,0.52,CN1C(C2CCCCC2)=CC(=Cc2sc3ccccc3[n+]2C)c2ccccc21 [compound 6104],,
523,502,0.43,CN1CCN(C2=CC(=Cc3sc4ccccc4[n+]3C)c3ccccc3N2c2ccccc2)CC1 [compound 856],,
507,487,0.52,CCOC1=CC(=Cc2sc3ccccc3[n+]2C)c2ccccc2N1c1ccccc1 [compound 720],,
533,516,,COc1ccc(N2C(Cl)=CC(=Cc3sc4ccccc4[n+]3C)c3ccccc32)cc1 [compound 582],,
510,471,,COc1ccccc1N1C=CC(=Cc2sc3ccccc3[n+]2C)C=C1Cl [compound 616],,
,,,C[n+]1c(C=CC=C2C=CN(CCC[N+](C)(C)C)C=C2)oc2ccccc21 [PO-PRO-3],567 nm,539 nm
526,503,0.35,CSC1=CC(=Cc2sc3ccccc3[n+]2C)c2ccccc2N1c1ccccc1 [compound 641],,
,,,C[n+]1c(C=C2C=CN(CCC[N+](C)(C)CCC[N+](C)(C)CCCN3C=CC(=Cc4sc5ccccc5[n+]4C)c4ccccc43)c3ccccc32)sc2ccccc21 [TOTO-1],533 nm,514 nm
,,,C[n+]1c(C=C2C=CN(CCC[N+](C)(C)C)c3ccccc32)oc2ccccc21 [YO-PRO-1],509 nm,491 nm
510,485,0.68,CCN(CC)C1=CC(=Cc2sc3ccccc3[n+]2C)c2ccc(OC)cc2N1c1ccccc1 [compound 760],,
526,508,0.31,CCCCc1cc(C=C2Sc3ccccc3N2C)c2ccccc2[n+]1-c1cccs1 [compound 71],,
533,517,,C[n+]1c(C=C2C=C(Br)N(c3ccccc3)c3ccccc32)sc2ccccc21 [compound 774],,
535,515,0.026,CN1C=CC(=Cc2sc3ccccc3[n+]2C)c2cccc(-c3ccccc3)c21 [compound 72],,
